Where two headings read alike, the source gives them in different places.
Experiments:
[1] = test system: beagle dogs; test: Safety evaluation in single dosing; format: in vivo; details: intragastric single dose of 2 g/kg; for Activities, mental condition and diet: administration and observation period
Method: Safety Evaluation of Compounds I-1 and I-2 in Single Dosing: The test consisted of a physiological control group, a solvent control group, and two administration groups, with 4 animals in each group, half of which were male and the other half of which were female. The animals were intragastrically administered with the test compounds at a single dose of 2 g/kg. The solvent control group was administered with an equal volume of the blank solvent. Animals were daily observed for various conditions during the test. ECG examinations were performed before administration, 1 h after administration, and 7 and 14 days after administration. Hematological and blood biochemical tests were performed before administration and 1, 7 and 12 days after administration.

[2] = Light-avoidance stability test after being packaged with aluminum foil (HPLC); format: physicochemical
Method: The stability of the compound is investigated under the conditions of high temperature, high humidity and light. The testing conditions for high performance liquid chromatography (HPLC) are as follows: Samples relating to Compound I-2 were tested using Method 2 and other samples were tested using Method 1. The test results of the influence factors are shown in Table 14, and the test results of the light-avoidance stability test are shown in Table 15.

[3] = test system: beagle dogs; test: Safety evaluation in multiple dosing (14 days); format: in vivo; details: for Drug-related toxicity (appearance, mental activity, appetite, hematological, blood biochemical, ECG): continuous intragastrical administration for 14 days; for ECG examinations, hematological tests and serum biochemical tests: day 7 and 14
Method: Safety Evaluation of Compounds I-1 and I-2 in Multiple Dosing:
The test consisted of a physiological control group, a solvent control group, and two administration groups, with 4 animals in each group, half of which were male and the other half of which were female. Two dose groups, 100 mg/kg group and 300 mg/kg group, were set for the test compounds, to which the test compounds at doses of 100 mg/kg and 300 mg/kg were intragastrically administered respectively over 14 days. The solvent control group was administered with an equal volume of the blank solvent. Animals were daily observed for various conditions during the test. ECG examinations were performed before administration, and 7 and 14 days after administration. Hematological and blood biochemical tests were performed before administration and 7 and […] after administration.

[4] = Stability of the compounds under high temperature, high humidity and light (influence factors, HPLC); format: physicochemical
Method: Study on the Stability of the Compounds:
The stability of the compound is investigated under the conditions of high temperature, high humidity and light. The testing conditions for high performance liquid chromatography (HPLC) are as follows:
Instrument: high performance liquid chromatography;
Column: Inertsil C8-3, 150 mm×4.6 mm, 5 μm;
Mobile phase A: acetonitrile; mobile phase B: 5 mM ammonium dihydrogen phosphate;
Detection wavelength: 220 nm;
Column temperature: 35° C.;
Sample chamber temperature: 25° C.;
Column: Agilent Poroshell 120 EC-C18, 100 mm×4.6 mm, 2.7 μm;
Column temperature: 30° C.;
Other conditions are the same as that in Method 1.
Samples relating to Compound I-2 were tested using Method 2 and other samples were tested using Method 1. The test results of the influence factors are shown in Table 14, and the test results of the light-avoidance stability test are shown in Table 15.

[5] = test system: platelet aggregation induced by ADP; test: Test of inhibitory effect of compounds on platelet aggregation in rats (ex vivo, ADP-induced, after intragastric administration); design: species or system SD rats; details: for ED50: Rattus norvegicus; for Inhibition rate (%): platelet aggregation, control = 100%; for Aggregation rate (%): 2 h after administration, ADP 20 uM
Method: Test of Inhibitory Effect of Compounds on Platelet Aggregation in Rats Healthy male SD rats were selected and randomly divided into solvent control group, positive drug control group and test compound group. Intragastric administration was carried out, with the administration volume being 10 ml/kg˜bw. […] The platelet count was adjusted to 5×10^8 cells/ml with PPP.

[6] = 5 days, Light (aluminum foil) 4500 ± 500 LX
[7] = 10 days, Light (aluminum foil) 4500 ± 500 LX
[8] = 30 days, Light (aluminum foil) 4500 ± 500 LX
[9] = intragastric 100 mg/kg over 14 days
[10] = intragastric 300 mg/kg over 14 days
[11] = 5 days, High temperature 60° C.
[12] = 10 days, High temperature 60° C.
[13] = 30 days, High temperature 60° C.

SMILES: C/C=C/C(=O)Oc1cc2c(s1)CCN([C@H](C(=O)OC)c1ccccc1Cl)C2 [Compound I-1, Methyl (S,E)-2-(2-chlorophenyl)-2-(2-(2-butenoyloxy)-6,7-dihydrothieno[3,2-c]pyridin-5(4H)-yl)-acetate]
- ECG examinations, hematological tests and serum biochemical tests [1]: no obvious abnormalities
- Activities, mental condition and diet [1]: normal activities, good mental condition, and normal diet
- Chromatographic purity % ([2]; 0 day, 0point): 99.612%
- Individual maximum impurity % ([2]; 0 day, 0point): 0.236%
- Chromatographic purity % [2, 6]: 99.598%
- Individual maximum impurity % [2, 6]: 0.242%
- Chromatographic purity % [2, 7]: 99.565%
- Individual maximum impurity % [2, 7]: 0.243%
- Chromatographic purity % [2, 8]: 99.555%
- Individual maximum impurity % [2, 8]: 0.242%
- Drug-related toxicity (appearance, mental activity, appetite, hematological, blood biochemical, ECG) [3]: no significant drug-related toxicity
- Activities, mental condition and diet [3, 9]: normal activities, good mental condition, and normal diet
- ECG examinations, hematological tests and serum biochemical tests [3, 9]: no obvious abnormalities
- Activities, mental condition and diet [3, 10]: normal activities, good mental condition, and normal diet
- ECG examinations, hematological tests and serum biochemical tests [3, 10]: no obvious abnormalities
- Chromatographic purity % ([4]; 0 day, 0point): 99.612%
- Individual maximum impurity % ([4]; 0 day, 0point): 0.236%
- Chromatographic purity % ([4]; 5 days, High humidity RH92.5%): 99.583%
- Individual maximum impurity % ([4]; 5 days, High humidity RH92.5%): 0.235%
- Chromatographic purity % [4, 11]: 99.595%
- Individual maximum impurity % [4, 11]: 0.234%
- Chromatographic purity % ([4]; 5 days, Light 4500 ± 500 LX): 99.539%
- Individual maximum impurity % ([4]; 5 days, Light 4500 ± 500 LX): 0.287%
- Chromatographic purity % ([4]; 10 days, High humidity RH92.5%): 99.578%
- Individual maximum impurity % ([4]; 10 days, High humidity RH92.5%): 0.234%
- Chromatographic purity % [4, 12]: 99.596%
- Individual maximum impurity % [4, 12]: 0.232%
- Chromatographic purity % ([4]; 10 days, Light 4500 ± 500 LX): 99.502%
- Individual maximum impurity % ([4]; 10 days, Light 4500 ± 500 LX): 0.313%
- Chromatographic purity % ([4]; 30 days, High humidity RH92.5%): 99.544%
- Individual maximum impurity % ([4]; 30 days, High humidity RH92.5%): 0.235%
- Chromatographic purity % [4, 13]: 99.570%
- Individual maximum impurity % [4, 13]: 0.237%
- Chromatographic purity % ([4]; 30 days, Light 4500 ± 500 LX): 98.868%
- Individual maximum impurity % ([4]; 30 days, Light 4500 ± 500 LX): 0.698%
- ED50 ([5]; Platelet, po): 1 mg/kg
- Inhibition rate (%) ([5]; rats, intragastric 0.5 mg/kg): 22.4%
- Inhibition rate (%) ([5]; rats, intragastric 1 mg/kg): 50.2%
- Inhibition rate (%) ([5]; rats, intragastric 2 mg/kg): 77.0%
- Aggregation rate (%) ([5]; rats, intragastric 0.5 mg/kg): 46.6 ± 8.1%
- Aggregation rate (%) ([5]; rats, intragastric 1 mg/kg): 29.9 ± 8.7 %
- Aggregation rate (%) ([5]; rats, intragastric 2 mg/kg): 13.8 ± 11.7 %

SMILES: C/C=C/C=C/C(=O)Oc1cc2c(s1)CCN([C@H](C(=O)OC)c1ccccc1Cl)C2 [Compound I-2, Methyl (S)-2-(2-chlorophenyl)-2-(2-((2E,4E)-2,4-hexadienoyloxy)-6,7-dihydrothieno[3,2-c]pyridin-5(4H)-yl)-acetate]
- ECG examinations, hematological tests and serum biochemical tests [1]: no obvious abnormalities
- Activities, mental condition and diet [1]: normal activities, good mental condition, and normal diet
- Chromatographic purity % ([2]; 0 day, 0point): 98.879%
- Individual maximum impurity % ([2]; 0 day, 0point): 0.705%
- Chromatographic purity % [2, 6]: 98.348%
- Individual maximum impurity % [2, 6]: 0.699%
- Chromatographic purity % [2, 7]: 98.544%
- Individual maximum impurity % [2, 7]: 0.699%
- Chromatographic purity % [2, 8]: 98.434%
- Individual maximum impurity % [2, 8]: 0.696%
- Drug-related toxicity (appearance, mental activity, appetite, hematological, blood biochemical, ECG) [3]: no significant drug-related toxicity
- Activities, mental condition and diet [3, 9]: normal activities, good mental condition, and normal diet
- ECG examinations, hematological tests and serum biochemical tests [3, 9]: no obvious abnormalities
- Activities, mental condition and diet [3, 10]: normal activities, good mental condition, and normal diet
- ECG examinations, hematological tests and serum biochemical tests [3, 10]: no obvious abnormalities
- Chromatographic purity % ([4]; 0 day, 0point): 98.879%
- Isomer % ([4]; 0 day, 0point): 0.705%
- Chromatographic purity % ([4]; 5 days, High humidity RH92.5%): 98.897%
- Isomer % ([4]; 5 days, High humidity RH92.5%): 0.707%
- Chromatographic purity % [4, 11]: 98.840%
- Isomer % [4, 11]: 0.696%
- Chromatographic purity % ([4]; 5 days, Light 4500 ± 500 LX): 98.853%
- Isomer % ([4]; 5 days, Light 4500 ± 500 LX): 0.699%
- Chromatographic purity % ([4]; 10 days, High humidity RH92.5%): 98.882%
- Isomer % ([4]; 10 days, High humidity RH92.5%): 0.708%
- Chromatographic purity % [4, 12]: 98.930%
- Isomer % [4, 12]: 0.692%
- Chromatographic purity % ([4]; 10 days, Light 4500 ± 500 LX): 98.756%
- Isomer % ([4]; 10 days, Light 4500 ± 500 LX): 0.712%
- Chromatographic purity % ([4]; 30 days, High humidity RH92.5%): 98.885%
- Isomer % ([4]; 30 days, High humidity RH92.5%): 0.704%
- Chromatographic purity % [4, 13]: 98.936%
- Isomer % [4, 13]: 0.683%
- Chromatographic purity % ([4]; 30 days, Light 4500 ± 500 LX): 95.099%
- Isomer % ([4]; 30 days, Light 4500 ± 500 LX): 0.695%
- ED50 ([5]; inhibition of ADP-induced platelet aggregation, rats, oral administration, read-out: ED50): 1.58 mg/kg
- Inhibition rate (%) ([5]; rats, intragastric 0.75 mg/kg): 7.0%
- Inhibition rate (%) ([5]; rats, intragastric 1.5 mg/kg): 50.8%
- Inhibition rate (%) ([5]; rats, intragastric 3 mg/kg): 85.8%
- Aggregation rate (%) ([5]; rats, intragastric 0.75 mg/kg): 55.8 ± 13.9%
- Aggregation rate (%) ([5]; rats, intragastric 1.5 mg/kg): 29.6 ± 8.7 %
- Aggregation rate (%) ([5]; rats, intragastric 3 mg/kg): 8.5 ± 9.4 %
